Data taken from US20210322582A1, “RADIOACTIVE IMIDAZOTHIADIAZOLE DERIVATIVE COMPOUND” (Nihon Medi-Physics Co., Ltd., priority 2018, published 2021).

System: HT-29 tumor
Test: Biodistribution of [^111In]ITDA2 in HT-29 tumor cancer-bearing mouse
Format: in vivo
Details: HT-29 tumor mouse
Method: HT-29 cells (5×10^6 cells/mouse) and MDA-MB-231 cells (1×10^7 cells/mouse) were subcutaneously inoculated into the left shoulders of 5-week old male BALB/c nude mice, respectively, and the mice were used when the tumor diameter reached 6 to 10 mm. A saline solution (100 μL) in which [^111In]ITDA2 (40 kBq) had been dissolved was administered to each of the HT-29 tumor or MDA-MB-231 tumor cancer-bearing mice (n=5) via the tail vein. The HT-29 tumor cancer-bearing mice were slaughtered after the lapse of 1, 4, 8, and 24 hours from the administration, the MDA-MB-231 tumor cancer-bearing mouse was slaughtered after the lapse of 24 hours from the administration, and the blood, spleen, pancreas, stomach, intestines, kidney, liver, heart, lungs, brain, tumor, and muscle were recovered from each of the mice. The weight of each organ was measured, and the amount of radioactivity in each organ was measured by using a gamma counter. The accumulation of radioactivity in each organ except for stomach was expressed by % injected dose/g organ obtained by dividing the ratio of the amount of radioactivity of each organ to the administered amount of radioactivity by the organ weight. The stomach was expressed by % injected dose.

NS(=O)(=O)c1nn2cc(-c3ccc(NC(=O)CN4CCN(CC(=O)O)CCN(CC(=O)Nc5ccc(-c6cn7nc(S(N)(=O)=O)sc7n6)cc5)CCN(CC(=O)O)CC4)cc3)nc2s1.[111In+3] [[^111In]ITDA2, [^111In]indium(III)2,2′-(4,10-bis(2-oxo-2-((4-(2-sulfamoylimidazo[2,1-b][1,3,4]thiadiazol-6-yl)phenyl)amino)ethyl)-1,4,7,10-tetraazacyclododecan-1,7-diyl) diacetic acid]
Biokinetics: Blood (1 hour): 0.27 ± 0.03 % injected dose/g organ
Biokinetics: Brain (1 hour): 0.30 ± 0.04 % injected dose/g organ
Biokinetics: Heart (1 hour): 5.64 ± 1.01 % injected dose/g organ
Biokinetics: Intestines (1 hour): 11.24 ± 1.54 % injected dose/g organ
Biokinetics: Kidney (1 hour): 137 ± 11.1 % injected dose/g organ
Biokinetics: Liver (1 hour): 4.11 ± 0.54 % injected dose/g organ
Biokinetics: Lungs (1 hour): 6.10 ± 0.97 % injected dose/g organ
Biokinetics: Muscle (1 hour): 2.05 ± 0.61 % injected dose/g organ
Biokinetics: Pancreas (1 hour): 20.01 ± 6.77 % injected dose/g organ
Biokinetics: Spleen (1 hour): 0.40 ± 0.27 % injected dose/g organ
Biokinetics: Stomach (1 hour): 3.99 ± 0.49 % injected dose
Biokinetics: Tumor (1 hour): 2.11 ± 0.32 % injected dose/g organ
Tumor/blood (1 hour): 7.78 ± 0.95
Tumor/muscle (1 hour): 1.12 ± 0.45
Biokinetics: Blood (4 hours): 0.18 ± 0.01 % injected dose/g organ
Biokinetics: Brain (4 hours): 0.30 ± 0.04 % injected dose/g organ
Biokinetics: Heart (4 hours): 2.81 ± 0.39 % injected dose/g organ
Biokinetics: Intestines (4 hours): 15.32 ± 1.51 % injected dose/g organ
Biokinetics: Kidney (4 hours): 143 ± 12.0 % injected dose/g organ
Biokinetics: Liver (4 hours): 4.87 ± 1.08 % injected dose/g organ
Biokinetics: Lungs (4 hours): 4.25 ± 0.76 % injected dose/g organ
Biokinetics: Muscle (4 hours): 2.00 ± 0.21 % injected dose/g organ
Biokinetics: Pancreas (4 hours): 20.88 ± 2.49 % injected dose/g organ
Biokinetics: Spleen (4 hours): 0.13 ± 0.10 % injected dose/g organ
Biokinetics: Stomach (4 hours): 5.09 ± 0.66 % injected dose
Biokinetics: Tumor (4 hours): 2.47 ± 0.30 % injected dose/g organ
Tumor/blood (4 hours): 13.85 ± 2.45
Tumor/muscle (4 hours): 1.24 ± 0.19
Biokinetics: Blood (8 hours): 0.20 ± 0.01 % injected dose/g organ
Biokinetics: Brain (8 hours): 0.35 ± 0.05 % injected dose/g organ
Biokinetics: Heart (8 hours): 1.89 ± 0.35 % injected dose/g organ
Biokinetics: Intestines (8 hours): 15.40 ± 0.94 % injected dose/g organ
Biokinetics: Kidney (8 hours): 110 ± 13.7 % injected dose/g organ
Biokinetics: Liver (8 hours): 4.58 ± 0.76 % injected dose/g organ
Biokinetics: Lungs (8 hours): 2.87 ± 1.08 % injected dose/g organ
Biokinetics: Muscle (8 hours): 1.39 ± 0.20 % injected dose/g organ
Biokinetics: Pancreas (8 hours): 13.15 ± 4.17 % injected dose/g organ
Biokinetics: Spleen (8 hours): 0.32 ± 0.20 % injected dose/g organ
Biokinetics: Stomach (8 hours): 6.78 ± 0.95 % injected dose
Biokinetics: Tumor (8 hours): 3.10 ± 0.35 % injected dose/g organ
Tumor/blood (8 hours): 15.31 ± 1.69
Tumor/muscle (8 hours): 2.28 ± 0.39
Biokinetics: Blood (24 hours): 0.26 ± 0.02 % injected dose/g organ
Biokinetics: Brain (24 hours): 0.37 ± 0.09 % injected dose/g organ
Biokinetics: Heart (24 hours): 1.58 ± 0.42 % injected dose/g organ
Biokinetics: Intestines (24 hours): 11.14 ± 2.06 % injected dose/g organ
Biokinetics: Kidney (24 hours): 76.4 ± 17.2 % injected dose/g organ
Biokinetics: Liver (24 hours): 3.50 ± 0.81 % injected dose/g organ
Biokinetics: Lungs (24 hours): 2.15 ± 0.49 % injected dose/g organ
Biokinetics: Muscle (24 hours): 1.00 ± 0.25 % injected dose/g organ
Biokinetics: Pancreas (24 hours): 7.23 ± 1.40 % injected dose/g organ
Biokinetics: Spleen (24 hours): 0.27 ± 0.13 % injected dose/g organ
Biokinetics: Stomach (24 hours): 9.33 ± 0.72 % injected dose
Biokinetics: Tumor (24 hours): 5.93 ± 0.88 % injected dose/g organ
Tumor/blood (24 hours): 22.63 ± 3.31
Tumor/muscle (24 hours): 6.18 ± 1.45
